Experimental data: patent US20110105436A1, “HETEROARYL COMPOUNDS, COMPOSITIONS, AND METHODS OF USE IN CANCER TREATMENT” (AUCKLAND UNISERVICES LIMITED, priority 2008, published 2011)

How the values were obtained:
[1] = system: RCC4 cells; experiment: XTT assay in VHL-deficient RCC4 cells; type: cell-based
Summary of the method: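 RCC4 cells with and without VHL seeded at 5000/well, then exposed next day to serially diluted compound (DMSO vehicle) for four days. Viability read by XTT (0.3 mg/ml) with PMS, 1-2 h at 37° C, absorbance at 450 nm.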

[2] = system: SN12C tumors; experiment: Tumor growth of SN12C cells (wild-type VHL) in scid mice; type: in vivo; details: daily intraperitoneal treatment, FIG. 1E
Procedure: In vivo studies. 2−3×10^6 SN12C and SN12C-VHL shRNA cells were injected in male scid mice 4-6 weeks old. When tumor volume reached 150 mm^3, mice were randomized into vehicle control group or STF-62247 treatment group. Mice were treated every day with […] of STF-62247 intraperitoneally. Tumor growth was measured every 2-3 days after the drug treatment was started.
A. RCC4 and RCC4/VHL cells were labeled with EYFP and the effect of STF-62247 was monitored by fluorescence in each cell type separately. Cells are pseudocolored. B. Clonogenic assay in RCC4, RCC4/VHL, SN12C, SN12C-VHL shRNA cells in the presence of STF-62247 (0-30 μM). Each point of the cell survival is calculated by the average of three different experiments in triplicate as the percent of treated on untreated plate. The error bars represented the standard error of the mean (SEM). C. Upper Panel, clonogenic assay in RCC4 infected with HIF-1α or HIF-2α shRNA by retroviral infection in presence of drug in same conditions described above. Bottom panel, HIF-1α or HIF-2α protein expression evaluated by western blot in RCC4 cells with HIF-1α or HIF-2α shRNA. Tubulin is used as loading control. […] Tumor volume was measured every 2-3 days and data are represented in fold. Five tumors in each condition were analyzed where * p<0.05, **p<0.01 and ***p<0.005.

Compound: Cc1cccc(Nc2nc(-c3ccncc3)cs2)c1 [Compound 5, N-(3-Methylphenyl)-4-(4-pyridinyl)-1,3-thiazol-2-amine]
- IC50 ([1]; Homo sapiens, 96 h, Table 1, XTT assay, VHL-deficient RCC4 cells, four days): 2.1 µM
- viability in a short term assay ([1]; XTT, 0-40 μM, FIG. 7B): decreases the viability of VHL-deficient cells in a short term assay
- tumor growth [2]: did not have any effect on the growth of SN12C tumor cells that have wild-type VHL
